# Source: patent publication US20240279602A1, “METHOD FOR PRODUCING CEREBRAL CORTICAL CELL PREPARATION DERIVED FROM HUMAN PLURIPOTENT STEM CELLS” (Kyoto University, priority 2021, published 2024)
# Tests used:
# cerebral organoids [1] = experiment: Single-cell gene expression analysis of Rosettes organoids with or without DAPT; type: cell-based, human; details: Rosettes organoids treated with DAPT for 3 days (DAPT+)
# Description: First, to prepare a single-cell suspension from an organoid, the organoid was separated into single cells with dispersing solution for neural cells (FUJIFILM Wako Pure Chemical Corporation) under recommended conditions. The dispersed cells were resuspended in HBSS supplemented with 10% (v/v) KSR and 10 μM Y-27632 (FUJIFILM Wako Pure Chemical Corporation) at a density of 1,000 cells/μL. Into a Chromium Next GEM Chip G (2000177 10X Genomics, Inc.), approximately 4,670 cells were loaded per channel, and treated with a Chromium controller to acquire Gel Beads-in-Emulsion (GEM). Libraries were produced by using Chromium Next GEM Single Cell 3′ Reagent Kits v3.1 (1000121; 10X Genomics, Inc.) in accordance with a protocol from the manufacturer (CG000204 Rev C). The sequences of the libraries were analyzed with Novaseq 6000 (Illumina, Inc.).
# Cell Ranger pipeline was used for mapping of sequences in single-cell RNA-seq. GRCh38 human genome sequences were used as reference genome sequences. UMI count values acquired through analysis with a next-generation sequencer were analyzed by using Seurat R package. First, data of organoids were normalized by a Log-Normalize method, and then all the data of organoids were integrated. […]
# cerebral organoids [2] = experiment: RT-qPCR of marker gene expression after DAPT treatment; type: cell-based, human; details: for expression of Hes1: single-cell DAPT method (step (iv))
# Description: Total RNA was obtained with an RNeasyMicroKit (QIAGEN), and reverse transcription reaction was performed with a SuperScript III First-Strand Synthesis System ([…]) in accordance with a protocol from the provider. Quantitative PCR was carried out by using TaqMan (TM) Gene Expression Master Mix (Thermo Fisher Scientific Inc.) or SYBR Green Master Mix (Thermo Fisher Scientific Inc.) in accordance with instruction from the manufacturer. The expression levels of genes were normalized to that for GAPDH by using the […] method.
# To analyze the influence of the DAPT treatment period on differentiation, cerebral organoids in week 7 of induction of differentiation were treated with 10 μM DAPT for 3 to 7 days according to a method or scheme shown in FIG. 16(A) (organoid DAPT method), and the variation of gene expression was analyzed by RT-qPCR; the results are shown in FIG. 16(B). The ordinate represents relative expression levels to GAPDH.
# Furthermore, organoids on Day 25, Day 32, Day 39, and Day 72 (the periods of induction of differentiation: about 4 weeks, 5 weeks, 6 weeks, and 10 weeks, respectively) were cultured in the presence or absence of DAPT for 3 days, and the cerebral organoids on Day 28 (4 wk), Day 35 (5 wk), Day 42 (6 wk), and Day 75 (10 wk) were analyzed for the expression levels of marker genes by RT-qPCR; the results of analysis of the relative expression levels of the markers are shown in FIG. 18. […] For the organoids in week 10, no reduction in expression of Ki67 was found, and no influence was found in expression of Satb2, too.
# In the “single-cell DAPT method (DAPT treatment is performed in step (iv))” in FIG. 24(B), cerebral organoids were screened on day 38 after the initiation of induction of differentiation and dispersed into single cells by the method described for step (iii) in Example 4, and the cells were then suspended in a culture medium obtained by adding 10 ng/mL GDNF, 20 ng/mL BDNF, 200 μM ascorbic acid, 400 μM dibutyryl-cAMP, and 30 μM Y-27632 to the culture medium in step (2b) with addition of DAPT at a concentration of 0 μM, 0.1 μM, 1 μM, or 10 μM. Subsequently, the cells were regathered by the method described for step (iv) in Example 4 in the presence of DAPT, and cultured for 1 day, 2 days, or 3 days. Thereafter, the culture medium was switched to a culture medium obtained by adding 10 ng/mL GDNF, 20 ng/mL BDNF, 200 μM ascorbic acid, and 400 μM dibutyryl-cAMP to the culture medium in step (2b), and culture was continued until day 10 after the initiation of reaggregation. The cells on day 3, day 4, or day 10 after the initiation of reaggregation were analyzed by RT-qPCR, and the cells on day 10 were analyzed by flow cytometry; the results are shown in FIGS. 25 to 27.
# [3] = cerebral organoids in week 7, 10 μM DAPT for 3 to 7 days (organoid DAPT method)
# [4] = organoids in week 4 to week 6, DAPT for 3 days
# [5] = organoids in week 10, DAPT for 3 days
smiles,measurement,setting,value
"C[C@H](NC(=O)Cc1cc(F)cc(F)c1)C(=O)N[C@H](C(=O)OC(C)(C)C)c1ccccc1 [DAPT, N-[N-(3,5-difluorophenacetyl)-L-alanyl]-S-phenylglycine t-butyl ester]",cell population with expression of Pax6 and MKI67,cerebral organoids [1],largely shrunk
same,expression of Ctip2,cerebral organoids [2]; [3],enhanced as the DAPT treatment period was prolonged
same,"expressions of Pax6, Sox2, and Ki67",cerebral organoids [2]; [3],declined as the DAPT treatment period was extended
same,expression of Ctip2,cerebral organoids [2]; [4],enhanced expression
same,expression of Pax6 and Ki67,cerebral organoids [2]; [4],reduced expression
same,expression of Ki67,cerebral organoids [2]; [5],no reduction
same,expression of Satb2,cerebral organoids [2]; [5],no influence
same,expression of Hes1,"cerebral organoids [2]; 10 μM DAPT, 1-day and 2-day treatment, as culture proceeded",upregulated again
same,expression of Hes1,"cerebral organoids [2]; 10 μM DAPT, 3-day treatment",suppressed over the 10 days
same,expression of Hes1,"cerebral organoids [2]; DAPT 0.1 to 1 μM, 3 days",not sufficiently suppressed
